Data as given in US9867879B2 (Vanderbilt University, priority 2015, dated 2018).

Key:
[1] = tested on: heme biosynthetic pathway; assay: Accumulation of heme precursor molecules; format: cell-based, S. aureus; conditions: data not shown
Description: Because ALA is the first committed precursor molecule in the heme biosynthetic pathway, if ALA is contacted with bacteria, the bacteria will generated enhanced amounts of all of the heme precursor molecules downstream of ALA.

wild type S. aureus hemY = target: T1, wild type S. aureus hemY (Staphylococcus aureus, UniProt Q2FXA5); assay: Activation of hemY, wild type; format: biochemical
T1 sequence (Q2FXA5 1-466): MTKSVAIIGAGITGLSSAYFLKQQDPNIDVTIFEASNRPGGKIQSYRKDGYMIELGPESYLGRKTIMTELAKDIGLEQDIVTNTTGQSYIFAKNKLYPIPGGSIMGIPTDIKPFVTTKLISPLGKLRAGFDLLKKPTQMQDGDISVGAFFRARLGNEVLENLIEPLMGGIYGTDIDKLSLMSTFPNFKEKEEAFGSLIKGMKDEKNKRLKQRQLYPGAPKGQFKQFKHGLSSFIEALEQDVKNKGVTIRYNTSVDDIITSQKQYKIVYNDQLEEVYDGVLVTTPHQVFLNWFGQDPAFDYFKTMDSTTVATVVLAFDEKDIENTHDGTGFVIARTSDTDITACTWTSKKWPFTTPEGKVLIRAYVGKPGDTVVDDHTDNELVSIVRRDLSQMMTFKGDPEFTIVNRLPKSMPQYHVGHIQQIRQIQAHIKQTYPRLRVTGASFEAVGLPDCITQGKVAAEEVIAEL

[2] = target: T183K point mutant of hemY (Staphylococcus aureus, UniProt Q2FXA5, T183K); assay: Activation of hemY, T183K mutant; format: biochemical, S. aureus
hemY/PPO [3] = target: hemY/PPO (Bacillus subtilis, UniProt P32397); assay: Activation of hemY/PPO, Bacillus subtilis; format: biochemical
hemY/PPO [4] = assay: Activation of hemY/PPO, Propionibacterium acnes; format: biochemical
mammalian PPO = target: T2, mammalian PPO (Homo sapiens, UniProt P50336); assay: Activation of mammalian PPO; format: biochemical
T2 sequence (P50336 1-477): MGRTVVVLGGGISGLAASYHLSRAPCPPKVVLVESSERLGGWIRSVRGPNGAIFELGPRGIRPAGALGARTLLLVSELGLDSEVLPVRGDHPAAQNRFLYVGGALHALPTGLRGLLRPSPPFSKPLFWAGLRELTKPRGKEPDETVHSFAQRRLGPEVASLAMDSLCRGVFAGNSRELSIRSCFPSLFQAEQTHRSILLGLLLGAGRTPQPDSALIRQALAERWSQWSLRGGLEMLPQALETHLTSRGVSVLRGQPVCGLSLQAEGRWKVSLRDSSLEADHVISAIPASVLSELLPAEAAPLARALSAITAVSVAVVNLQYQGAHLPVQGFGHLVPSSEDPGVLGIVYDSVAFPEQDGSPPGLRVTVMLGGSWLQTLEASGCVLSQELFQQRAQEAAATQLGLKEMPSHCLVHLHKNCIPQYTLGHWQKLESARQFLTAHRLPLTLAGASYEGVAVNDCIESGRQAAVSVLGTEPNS

S. aureus = assay: Phototherapy: compound plus light, CFU count; format: cell-based
Method: Briefly, S. aureus was incubated with the 882 compound for 30 minutes at 37° C., treated with light for 45 minutes (500 W halogen), and then a colony-forming unit (CFU) count was conducted.

Chain of hemY/PPO (Bacillus subtilis, UniProt P32397) (P32397 whole entry): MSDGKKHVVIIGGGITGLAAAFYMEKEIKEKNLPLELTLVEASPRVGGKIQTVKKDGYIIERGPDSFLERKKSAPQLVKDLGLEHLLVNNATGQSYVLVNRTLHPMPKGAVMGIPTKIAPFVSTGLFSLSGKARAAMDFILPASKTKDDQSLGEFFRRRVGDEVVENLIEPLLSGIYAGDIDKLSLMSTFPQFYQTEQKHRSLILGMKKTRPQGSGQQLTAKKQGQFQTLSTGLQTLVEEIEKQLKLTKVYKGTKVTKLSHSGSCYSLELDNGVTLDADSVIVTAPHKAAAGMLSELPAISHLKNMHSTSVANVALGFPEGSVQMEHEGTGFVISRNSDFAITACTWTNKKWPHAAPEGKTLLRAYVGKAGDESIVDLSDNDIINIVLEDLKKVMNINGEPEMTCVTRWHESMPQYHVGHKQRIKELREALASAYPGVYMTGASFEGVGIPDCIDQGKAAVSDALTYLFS

## Oc1c(-c2cc(-c3ccco3)[nH]n2)ccc2ccccc12 [882 compound]
[1]
  PPIX accumulation: does increase PPIX accumulation
  accumulation of PBG: does not
Wild type S. aureus hemY
  activation of hemY: activates wild type S. aureus hemY
[2]
  activation of hemY: not the T183K point mutant of hemY
hemY/PPO [3]
  activation of hemY/PPO: activates hemY/PPO in Bacillus subtilis
hemY/PPO [4]
  activation of hemY/PPO: activates
Mammalian PPO
  activation of PPO: activates
S. aureus; 882 50 μM and light vs ALA 10 mg/mL and light
  toxicity with light compared to ALA and light: more toxic to the bacteria than ALA
S. aureus; 30 min at 37° C., light 45 min (500 W halogen), CFU count
  photosensitization: leads to staphylococcal photosensitization
